From US10179355B2, “Bioremediation enhancing agents and methods of use” (JRW BIOREMEDIATION, LLC, priority 2007, dated 2019)

Tests used:
[1] = tested on: dechlorinating bacteria known to convert PCE to ethene; assay: Set C: Nutrient Comparisons, PCE dechlorination microcosms (kinetics, Relative Rate); type: cell-based, Dehalococcoides and Dehalobacter spp.
Text: Certain contaminated materials (or sites) may contain indigenous microbial communities that are sufficient for complete bioremediation of contaminants. For such sites, there is no need to add microbes unless the indigenous microbes are genetically deficient in achieving the desired clean-up goals. For those sites that are microbiologically limited, microorganisms may be added to the contaminated materials (or sites). In one embodiment, the inoculum may be a mixed culture of halo-respiring bacteria that have been enriched to reach an optimal cell density. These mixed cultures of halo-respiring bacteria may be typically obtained from sediment samples from rivers, streams or any waterways. More specifically, the inoculum used in the Examples was originated from a Sangamon River sediment sample (Lodge Park, Piatt County, Ill.) See, e.g., Brennan, R. A., Sanford, R. A. and Werth, C. J. (2006). “Biodegradation of Tetrachloroethene by Chitin Fermentation Products in a Continuous Flow Column System.” Journal of Environ. Engr., June 665-673. This culture had grown for several years on PCE, anaerobic basal salts medium, Wolfe's vitamin solution and various electron donors including lactate (1-2 millimolar (mM)), formate (4 mM) and chitin using the Volatile Interface Transfer Apparatus (VITA) reactor system at the University of Illinois. Brennan, R. A., and Sanford, R. A. (2002). “Continuous steady-state method using Tenax for delivering tetrachloroethene to chlororespiring bacteria.” Appl. Environ. Microbiol., 68(3), 1464-1467. […] Using 16S rRNA gene-specific primers, both Dehalococcoides and Dehalobacter spp. were detected. Quantitative real-time PCR has been used to determine that approximately 1.65×10^7 Dehalococcoides gene copies were present per ml of culture.
For purpose of this disclosure, each bottle may be started with a certain amount of PCE. At subsequent times each bottle may be sampled for the degradation daughter products of PCE, namely trichloroethene (TCE), cis-dichloroethene (DCE), vinyl chloride (VC) and ethene, etc. Trans-DCE and 1,1-DCE are also daughter products of PCE, but they may not be detectable under the conditions disclosed here.
The rate of degradation may be determined by calculating the number of pmoles of chloride ions removed from PCE and subsequently from the amounts of the daughter products generated. The calculation may be performed as follows: Chloride (μmoles)=[…]−4×PCE (μmoles)−3×TCE (pmoles)−2×DCE (μmoles)−VC (μmoles)
Next, the dechlorination rate may be determined for each bottle at each time by dividing the Chloride generated by the time (days). The data may be then normalized to the lactate control by taking the ratio of Chloride Rate (pmoles/day) and the Lactate Control Chloride Rate (pmoles/day). This ratio is called Relative Rate and is dimensionless.
As shown in the Examples, a paired t-test has been conducted to calculate the probability that the Relative Rate of one group (i.e. with Nutrient) is greater than the other group (i.e. without Nutrient). The null hypothesis is that the underlying means of the two paired groups are equal. The Probability that one group has higher Relative Rates than the other group is shown in various tables in the Examples.
The following components were used in the system for bioremediating contaminated ground water microcosms in Examples 2-8: • 160 milliliter (ml) stoppered serum bottles • 100 ml of anaerobic culture medium, groundwater containing an excess of bioavailable phosphorus and nitrogen at 0.5 mM Phosphate and 1 mM ammonium degassed with a nitrogen sparge • Nominally 1 gram of limestone • 19.54 micromoles (pmoles) Perchloroethene (PCE) • An excess of various electron donors were utilized • 3 ml of inoculum containing dechlorinating bacteria known to convert PCE to ethene. […]

[2] = tested on: dechlorinating bacteria known to convert PCE to ethene; assay: Set G: Efficiency by VFA Analysis; type: cell-based, Dehalococcoides and Dehalobacter spp.
Text: Sets B, C, D, E, and G further contain figures and tables showing results of the characterization of the Efficiency and the Relative Efficiency of electron donor usage. Efficiency may be defined as the percent of electron donor utilized for dechlorination, and may be calculated by dividing the pmoles of Chloride ion generated by the pmoles of electron donor consumed as measured by either Volatile Fatty Acid (VFA) analysis (Sets B, C, and G) or Chemical Oxygen Demand (COD) analysis (Set D and E). The Relative Efficiency of the electron donor utilization may be defined as the Efficiency of the Electron Donor divided by the Efficiency of the Lactate Control.
The method used to calculate the consumption of the electron donor measured the propionate, acetate and formate levels to calculate the consumption of electron donor over time. The lactate and propionate fermented very rapidly resulting in acetate and formate as the only measurable VFAs.
Set G contained microcosms that tested two different Yeast Metabolites (YM3 and YM4) and a Polysaccharide (PS1) for kinetics and efficiency of electron donor utilization using lactate and molasses as the electron donors. PS1 was also tested as an electron donor by itself.
Lactate at 11.2 mM (1,000 mg/L) and nutrient amendment at 1% of the electron donor levels (˜10 mg/L). Triplicate bottles received 2 micro liters of PCE and 2 ml of inoculum. The bottles were sampled 5 times over a 138 day period.

CC(O)C(=O)[O-].[Na+] (centres unmarked) [Lactate Control, sodium lactate]
Average Relative Rate [1]: 1.00
Cl^− Rate ± s.d. ([1]; 0 days): 0.00 ± 0.00 µmol
Cl^− ± s.d. ([1]; 0 days): 0.00 ± 0.00 µmol
DCE ± s.d. ([1]; 0 days): 0.00 ± 0.00 µmol
Ethene ± s.d. ([1]; 0 days): 0.00 ± 0.00 µmol
PCE ± s.d. ([1]; 0 days): 19.54 ± 0.00 µmol
TCE ± s.d. ([1]; 0 days): 0.00 ± 0.00 µmol
VC ± s.d. ([1]; 0 days): 0.00 ± 0.00 µmol
Cl^− Rate ± s.d. ([1]; 21 days): 2.43 ± 0.13 µmol
Cl^− ± s.d. ([1]; 21 days): 51.01 ± 2.69 µmol
DCE ± s.d. ([1]; 21 days): 5.05 ± 0.62 µmol
Ethene ± s.d. ([1]; 21 days): 0.09 ± 0.02 µmol
PCE ± s.d. ([1]; 21 days): 0.66 ± 0.52 µmol
TCE ± s.d. ([1]; 21 days): 1.20 ± 1.01 µmol
VC ± s.d. ([1]; 21 days): 10.83 ± 1.56 µmol
Cl^− Rate ± s.d. ([1]; 35 days): 1.36 ± 0.03 µmol
Cl^− ± s.d. ([1]; 35 days): 47.71 ± 1.16 µmol
DCE ± s.d. ([1]; 35 days): 2.02 ± 1.88 µmol
Ethene ± s.d. ([1]; 35 days): 0.54 ± 0.29 µmol
PCE ± s.d. ([1]; 35 days): 0.00 ± 0.00 µmol
TCE ± s.d. ([1]; 35 days): 0.00 ± 0.00 µmol
VC ± s.d. ([1]; 35 days): 26.41 ± 2.65 µmol
Cl^− Rate ± s.d. ([1]; 49 days): 1.03 ± 0.01 µmol
Cl^− ± s.d. ([1]; 49 days): 50.42 ± 0.27 µmol
DCE ± s.d. ([1]; 49 days): 0.00 ± 0.00 µmol
Ethene ± s.d. ([1]; 49 days): 3.79 ± 1.31 µmol
PCE ± s.d. ([1]; 49 days): 0.00 ± 0.00 µmol
TCE ± s.d. ([1]; 49 days): 0.00 ± 0.00 µmol
VC ± s.d. ([1]; 49 days): 27.74 ± 0.27 µmol
Relative Rate ([1]; bottle 1, 21 days): 1.06
Relative Rate ([1]; bottle 1, 35 days): 1.02
Relative Rate ([1]; bottle 1, 49 days): 1.00
Relative Rate ([1]; bottle 2, 21 days): 0.99
Relative Rate ([1]; bottle 2, 35 days): 0.97
Relative Rate ([1]; bottle 2, 49 days): 0.99
Relative Rate ([1]; bottle 3, 21 days): 0.95
Relative Rate ([1]; bottle 3, 35 days): 1.00
Relative Rate ([1]; bottle 3, 49 days): 1.01
efficiency of electron donor utilization for dechlorination (in words) ([2]; Set G): statistically more efficient an electron donor as compared to PS1 and molasses
Estimated % Efficiency ([2]; e^- used dechlorination / e^- used donor): 5.392%
Relative Efficiency ([2]; relative to Lactate Control = 100%): 100%
